Where a SMILES comes first, the peptide text is derived from it.
Assays:
ten strains of E. coli = assay type: cell-based, Escherichia coli
E. coli MG1655 = assay type: cell-based, Escherichia coli

SMILES	carbon source utilization (ten strains of E. coli)	suitability as nitrogen source (growth, purple color) (E. coli MG1655)	carbon source utilization (text) (ten strains of E. coli)
CC(=O)N[C@H]1[C@@H](O)[C@H](O)[C@@H](CO)O[C@H]1O [N-acetyl-β-D-mannosamine]	+ and −	not suitable	
C[C@@H](N)C(=O)O [D-alanine]	+	positive	
N[C@@H](CC(=O)O)C(=O)O [L-aspartic acid]	+ and −	positive	
C[C@H](N)C(=O)NCC(=O)O [L-alanyl-glycine] (H-Ala-Gly-OH)	+	positive	
N[C@H](CO)C(=O)O [D-serine]	+ and −	not suitable	
NCC(=O)N[C@@H](CCC(=O)O)C(=O)O [Glycyl-L-glutamic acid] (H-Gly-Glu-OH)	+	positive	
N[C@H](CC(=O)O)C(=O)O [D-aspartic acid]	−	not suitable	
NC(=O)[C@@H](O)[C@@H](O)[C@H](O)[C@@H](O)C=O [Glucuronamide]	+	not suitable	
C[C@@H](O)[C@H](N)C(=O)O [L-threonine]	+ and −	not suitable	negative
C[C@H](N)C(=O)O [L-alanine]	+	not suitable	
NCC(=O)N[C@@H](CC(N)=O)C(=O)O [gly-asn] (H-Gly-Asn-OH)		positive	
O=C1NC(=O)C(=O)C(=O)N1 [alloxan]		not suitable	
Nc1ncnc2c1ncn2[C@@H]1O[C@H](CO)[C@@H](O)[C@H]1O [Adenosine]	+	not suitable	
C[C@@H](N)c1ccccc1 [(R)-(+)-α-phenylethylamine]		not suitable	
O=NO [sodium nitrite]		not suitable	
CC(=O)N[C@H]1C(O)O[C@H](CO)[C@@H](O)[C@@H]1O (stereo partly drawn) [N-acetyl-D-glucosamine]	+	positive	
NCCN [ethylenediamine]		not suitable	

SMILES	carbon source utilization (ten strains of E. coli)	suitability as nitrogen source (growth, purple color) (E. coli MG1655)	carbon source utilization (text) (ten strains of E. coli)
NCCO [2-amino ethanol]	−	not suitable	
NC(N)=O [urea]		not suitable	
N[C@@H](CO)C(=O)O [L-serine]	+	not suitable	
NCCCCCC(=O)O [ε-amino-n-caproic acid]		not suitable	
CC(C)[C@@H](N)C(=O)O [D-valine]		not suitable	
N[C@H]1C(O)O[C@H](CO)[C@@H](O)[C@@H]1O (stereo partly drawn) [D(+)-glucosamine]		positive	
O=C(O)[C@@H]1CCCN1 [L-proline]	+ and −	positive	negative
NCCc1ccccc1 [Phenylethyl amine]	−	not suitable	
N[C@@H](CCC(=O)O)C(=O)O [L-glutamic acid]	+ and −	positive	negative
NC(=O)C[C@@H](N)C(=O)O [D-asparagine]		not suitable	
NCCc1c[nH]cn1 [histamine]		not suitable	
CC(O)C(N)=O (stereo not shown) [lactamide]		not suitable	
O=c1[nH]c(=O)c2[nH]c(=O)[nH]c2[nH]1 [uric acid]		not suitable	
N[C@H](CCC(=O)O)C(=O)O [D-glutamic acid]		not suitable	
N[C@@H](Cc1ccc(O)cc1)C(=O)O [L-tyrosine]		not suitable	
NCC(=O)N[C@@H](CCC(N)=O)C(=O)O [gly-gln] (H-Gly-Gln-OH)		positive	
NCCc1ccc(O)cc1 [Tyramine]	−	not suitable	

— patent US9274101B2 (BIOLOG, Inc., priority 2001, dated 2016)
